# Biological target: T1, recombinant full-length human GSK3β (Homo sapiens, UniProt P49841)
# T1 construct: recombinant full-length human GSK3β (Upstate); purchased Upstate
# Assay: Luciferase-coupled cell-free GSK3β kinase assay
# Format: biochemical
# Conditions: Table 1
# Method: For compounds in Tables 1 and 2, IC50 (μM) for GSK3β enzyme in cell free assay is provided as follows:
# Luciferase-Coupled Protein Kinase Assays
# All coupled-luciferase assays are performed by using a brief incubation with firefly luciferase (Promega) after completion of the kinase assay. KinaseGlo Plus is used for reading kinase reactions with ATP>10 μM, KinaseGlo for ATP <10 μM. The assay volume in a 384-well plate for the kinase reaction is 30 microliters.
# 10-25 ng of recombinant full-length human GSK3β (Upstate) is incubated in the presence or absence of compound at varying concentrations for 1 hour at 30 degrees Celsius in 20 mM MOPS, pH 7.0, 10 mM magnesium acetate, 0.2 mM EDTA, 2 mM EGTA, 30 mM magnesium chloride, 62.5 μM phospho-glycogen synthase peptide-2, 5 μM ATP, 10 mM β-glycerol phosphate, 1 mM sodium orthovanadate and 1 mM dithiothreitol. Proceed to KinaseGlo luciferase reaction (see below).
# Following the completion of the kinase reaction an equal volume of KinaseGlo or KinaseGlo Plus luciferase reagent (Promega) is added and the luminescence read using a luminescence plate reader within 5-10 minutes. Compound activity is expressed as % inhibition relative to maximal inhibition observed at the maximal dose and IC50 values then calculated using curve fitting software (GraphPad Prizm).
# T1 sequence (P49841 whole entry): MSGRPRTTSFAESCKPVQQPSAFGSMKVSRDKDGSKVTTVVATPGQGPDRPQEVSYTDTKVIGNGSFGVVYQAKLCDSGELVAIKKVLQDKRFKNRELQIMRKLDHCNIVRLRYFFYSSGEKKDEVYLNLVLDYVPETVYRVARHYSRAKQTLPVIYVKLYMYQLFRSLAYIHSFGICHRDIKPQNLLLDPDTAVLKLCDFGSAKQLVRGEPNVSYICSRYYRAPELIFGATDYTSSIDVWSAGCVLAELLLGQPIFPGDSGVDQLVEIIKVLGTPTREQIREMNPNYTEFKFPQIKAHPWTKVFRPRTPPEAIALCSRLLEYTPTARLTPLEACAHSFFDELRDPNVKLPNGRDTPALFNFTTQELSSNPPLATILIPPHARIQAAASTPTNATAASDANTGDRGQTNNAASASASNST
row,SMILES,IC50 [nM]
1,Nc1cc(NCCCc2ccccc2)cc2c1c(=O)c(C(=O)O)cn2C1CC1 [compound 45],> 1000
2,Nc1c(F)c(NCCc2ccc(Cl)cc2Cl)c(F)c2c1c(=O)c(C(=O)O)cn2C1CC1 [compound 18],500 to 1000
3,Nc1c(F)c(NCCNC(=O)c2ccccc2)c(F)c2c1c(=O)c(C(=O)O)cn2C1CC1 [compound 30],500 to 1000
4,Nc1c(F)c(NCCc2ccc(Cl)cc2)c(F)c2c1c(=O)ccn2C1CC1 [compound 9],500 to 1000
5,Nc1c(F)c(NCCNC(=O)c2ccccc2)c(F)c2c1c(=O)ccn2C1CC1 [compound 33],500 to 1000
6,CNNC(=O)c1cn(C2CC2)c2c(F)c(NCCCc3ccccc3)c(F)c(N)c2c1=O [compound 86],> 1000
7,Nc1c(F)c(NCCNC(=O)c2ccc(F)cc2)c(F)c2c1c(=O)c(C(=O)O)cn2C1CC1 [compound 34],100 to 500
8,Nc1c(F)c(NCCNC(=O)c2ccc3ccccc3n2)c(F)c2c1c(=O)c(C(=O)O)cn2C1CC1 [compound 39],500 to 1000
9,CC1COc2c(NCCCOc3ccccc3)c(F)c(N)c3c(=O)c(C(=O)O)cn1c23 (centres unmarked) [compound 88],100 to 500
10,CC(C)OCCCNc1c(F)c(N)c2c(=O)ccn(C3CC3)c2c1F [compound 25],> 1000
11,Nc1c(F)c(N2CCN(Cc3ccccc3)CC2)c(F)c2c1c(=O)c(C(=O)O)cn2C1CC1 [compound 22],> 1000
12,Nc1ccc(CCNc2c(F)c(N)c3c(=O)c(C(=O)O)cn(C4CC4)c3c2F)cc1 [compound 2],500 to 1000
13,Nc1c(F)c(NCCNC(=O)c2ccncc2)c(F)c2c1c(=O)c(C(=O)O)cn2C1CC1 [compound 41],500 to 1000
14,Nc1cc(NCCNc2ccccn2)cc2c1c(=O)c(C(=O)O)cn2C1CC1 [compound 36],> 1000
15,N#Cc1ccc(NCCNc2c(F)c(N)c3c(=O)ccn(C4CC4)c3c2F)nc1 [compound 40],100 to 500
16,Nc1c(F)c(NCCNC(=O)c2ccc(F)cc2)c(F)c2c1c(=O)ccn2C1CC1 [compound 35],100 to 500
17,Nc1c(F)c(NCCc2ccc(Cl)cc2)c(F)c2c1c(=O)c(C(=O)O)cn2C1CC1 [compound 4],100 to 500
18,Nc1c(F)c(NCCn2ccnc2)c(F)c2c1c(=O)c(C(=O)O)cn2C1CC1 [compound 42],> 1000
19,Nc1c(F)c(NCCn2cncn2)c(F)c2c1c(=O)c(C(=O)O)cn2C1CC1 [compound 44],> 1000
20,Nc1c(F)c(NCCc2ccc(Cl)cc2Cl)c(F)c2c1c(=O)ccn2C1CC1 [compound 24],> 1000
21,Nc1c(F)c(NCCc2ccc(F)cc2F)c(F)c2c1c(=O)ccn2C1CC1 [compound 31],> 1000

# Same assay, conditions: Table 2
row,SMILES,IC50 [nM]
1,COc1ccc(OCCNc2c(F)c(N)c3c(=O)c(C(=O)O)cn4c3c2OC[C@@H]4C)cc1 [Compound 87],100 to 500
2,C[C@H]1COc2c(NCCN3CCc4ccccc43)c(F)c(N)c3c(=O)c(C(=O)O)cn1c23 [compound 69],< 100
3,C[C@H]1COc2c(NCCCc3ccccc3)c(F)c(N)c3c(=O)c(C(N)=O)cn1c23 [Example 106],< 100
4,CC1COc2c(NCCNc3cccc4ccccc34)c(F)c(N)c3c(=O)c(C(=O)O)cn1c23 (centres unmarked) [compound 7],< 100
5,Cc1n[nH]c(SCCNc2c(F)c(N)c3c(=O)c(C(=O)O)cn4c3c2OC[C@@H]4C)n1 [Example 111],< 100
6,C[C@H]1COc2c(NCCSc3c[nH]c4ccccc34)c(F)c(N)c3c(=O)c(C(=O)O)cn1c23 [Example 116],< 100
7,C[C@H]1COc2c(NCCc3ccncc3)c(F)c(N)c3c(=O)c(C(=O)O)cn1c23 [compound 22],100 to 500
8,CC1(C)COc2c(NCCCOc3ccccc3)c(F)c(N)c3c(=O)c(C(=O)O)cn(c23)C1 [compound 28],100 to 500
9,C[C@H]1COc2c(NCCC3CCCCC3)c(F)c(N)c3c(=O)c(C(=O)O)cn1c23 [Example 104],< 100
10,Cc1ccc(OCCNc2c(F)c(N)c3c(=O)c(C(=O)O)cn4c3c2OC[C@@H]4C)cc1 [compound 77],100 to 500
11,C[C@H]1COc2c(NCCCc3ccc(Cl)cc3)c(F)c(N)c3c(=O)c(C(=O)O)cn1c23 [Example 102],< 100
12,C[C@H]1COc2c(NCCCc3ccccc3Cl)c(F)c(N)c3c(=O)c(C(=O)O)cn1c23 [compound 75],< 100
13,C[C@H]1COc2c(NCCOc3ccccc3)c(F)c(N)c3c(=O)c(C(=O)O)cn1c23 [Example 99],< 100
14,CC1COc2c(NCCCn3cnc4ccccc43)c(F)c(N)c3c(=O)ccn1c23 (centres unmarked) [compound 47],100 to 500
15,CC(COc1ccc(Cl)cc1)Nc1c(F)c(N)c2c(=O)c(C(=O)O)cn3c2c1OC[C@@H]3C (some centres unmarked) [compound 74],500 to 1000
16,C[C@H]1COc2c(NCCCNC(=O)c3ccccn3)c(F)c(N)c3c(=O)c(C(=O)O)cn1c23 [Example 117],< 100
17,C[C@H]1COc2c(NCCCc3ccccc3)c(F)c(N)c3c(=O)c(C#N)cn1c23 [Example 108],< 100
18,COc1ccc(C(CCNc2c(F)c(N)c3c(=O)c(C(=O)O)cn4c3c2OC[C@@H]4C)c2ccc(F)cc2)cc1 (some centres unmarked) [compound 81],< 100

row,SMILES,IC50 [nM]
1,Cc1ccc(C(C)C)c(OCCNc2c(F)c(N)c3c(=O)c(C(=O)O)cn4c3c2OC[C@@H]4C)c1 [compound 85],100 to 500
2,CC(CCc1ccccc1Cl)Nc1c(F)c(N)c2c(=O)c(C(=O)O)cn3c2c1OC[C@@H]3C (some centres unmarked) [compound 88],100 to 500
3,Nc1c(F)c(NCCCc2ccccc2)c2c3c1c(=O)c(C(=O)O)cn3CCCO2 [compound 46],100 to 500
4,C[C@H]1COc2c(NCCN3CCC(c4ccccc4)C3)c(F)c(N)c3c(=O)c(C(=O)O)cn1c23 (some centres unmarked) [Example 91],> 1000
5,C[C@H]1COc2c(NCCOc3ccc(C(=O)O)cc3)c(F)c(N)c3c(=O)c(C(=O)O)cn1c23 [Example 105],< 100
6,C[C@H]1COc2c(NCCNc3ccccn3)c(F)c(N)c3c(=O)c(C#N)cn1c23 [Example 110],< 100
7,C[C@H]1COc2c(NCCOc3ccc(-c4ccccc4)cc3)c(F)c(N)c3c(=O)c(C(=O)O)cn1c23 [Example 96],500 to 1000
8,Cc1cc(NCCNc2c(F)c(N)c3c(=O)c(C(=O)O)cn4c3c2OC[C@@H]4C)c2ccccc2n1 [Example 94],< 100
9,CC1Cc2ccccc2N1C(=O)CCCNc1c(F)c(N)c2c(=O)c(C(=O)O)cn3c2c1OC[C@@H]3C (some centres unmarked) [compound 90],500 to 1000
10,COc1ccc(OCC(C)Nc2c(F)c(N)c3c(=O)c(C(=O)O)cn4c3c2OC[C@@H]4C)cc1 (some centres unmarked) [compound 86],500 to 1000
11,CCOc1ccc(CCCNc2c(F)c(N)c3c(=O)c(C(=O)O)cn4c3c2OC[C@@H]4C)cc1OCC [Example 98],< 100
12,Cc1nn(C)c(C)c1CCCNc1c(F)c(N)c2c(=O)c(C(=O)O)cn3c2c1OC[C@@H]3C [Example 92],< 100
13,COc1c(NCCNc2cccc3ccccc23)c(F)c(N)c2c(=O)ccn(C3CC3)c12 [compound 66],< 100
14,CC(CCc1ccc(Cl)cc1)Nc1c(F)c(N)c2c(=O)c(C(=O)O)cn3c2c1OC[C@@H]3C (some centres unmarked) [compound 71],< 100
15,C[C@H]1COc2c(NCCCNC(=O)c3cccnc3)c(F)c(N)c3c(=O)c(C(=O)O)cn1c23 [Example 118],< 100
16,C[C@H]1COc2c(NCCCc3nc4ccccc4[nH]3)c(F)c(N)c3c(=O)c(C(=O)O)cn1c23 [compound 82],< 100
17,CC(C)c1ccc(OCCNc2c(F)c(N)c3c(=O)c(C(=O)O)cn4c3c2OC[C@@H]4C)cc1 [compound 78],100 to 500
